The viability is a read-out of living cells in per cent, often relative to untreated cells.

In article PMC12040169 (PLOS Biology, 2025) one finds viability data, which are given here for 80 compounds.

This data set can be described thus: in vitro. As to conditions: human, hela cells, % viability.

Take `CC(C(=O)Nc1ccc2oc(-c3ccccc3)nc2c1)(c1ccccc1)c1ccccc1` [CBK263928]: the viability at 28.5 h, 10 µM stood at 91%. Regarding `COc1ccc2[nH]c3c(c2c1)CCN(C(C)=O)C31CCNCC1` [CBK284429], the viability at 28.5 h, 10 µM is 79.1%. In the case of `O=C(CSc1nc2ccccc2o1)N1c2ccccc2Sc2ccccc21` [CBK221524], the viability at 28.5 h, 10 µM is 97.7%.

On to `COc1cccc([C@H]2CC[C@H](N(CCN(C)C)C(=O)Nc3cc(F)ccc3F)CC2)c1OC` [CBK050184], for which the viability at 28.5 h, 10 µM came to 113%. Take `CCn1cc(C2CN(S(=O)(=O)Cc3ccccc3)CCO2)cn1` (centres unmarked) [CBK304129]: the viability at 28.5 h, 10 µM stood at 106%. With `Cc1ccc(C(=O)N2CCC[C@@H]3NC(=O)c4ccccc4OCC/C=C/C[C@@H]32)c(O)n1` [CBK292080] the figure was 98.2%; with `CSc1nc(NC(=O)c2cccs2)cc(N2CCNCC2)n1` [CBK050315T], 89.7%; with `CCn1ncc(S(=O)(=O)N2CCCC(c3cccc(-c4cccc(OC)c4)n3)C2)c1C` (centres unmarked) [CBK286155], 96.8%. In the case of `O=c1[nH]c2ccccc2n1C1CCN(CCOC(c2ccc(F)cc2)c2ccc(F)cc2)CC1` [CBK099807G], the viability at 28.5 h, 10 µM was found to be 101%.

For the compound `OCc1ccnc2ccccc12` [CBK001746], the viability at 28.5 h, 10 µM was 87.4%. On to `CS(=O)(=O)N(Cc1cc2ccccc2nc1O)CC1CCCO1` (centres unmarked) [CBK269517], for which the viability at 28.5 h, 10 µM is 86.1%. As to `Cc1cnn(-c2cc(Oc3ccccc3)ncn2)c1` [CBK287276], the viability at 28.5 h, 10 µM is 114%. For the compound `CCc1nn(CC(=O)N2CCCCC2)c(=O)c2cc3oc(C)cc3n12` [CBK283575], the viability at 28.5 h, 10 µM amounted to 104%. For the compound `COCCc1nc(CN(C)C)n(Cc2ccccc2C)n1` [CBK307014], the viability at 28.5 h, 10 µM was determined as 87.8%.

On to `Clc1ccc(COc2cccc(CNCCN3CCOCC3)c2)cc1` [CBK278227C], for which the viability at 28.5 h, 10 µM was determined as 85%. Consider `O=C(O)CCSc1nnnn1C1CCCCC1` [CBK263052], for which the viability at 28.5 h, 10 µM worked out at 88.9%. Take `CN1CCN(NC(=O)CSc2ccccc2)CC1` [CBK268142]: the viability at 28.5 h, 10 µM was found to be 107%.

Consider `O=C(NC1CCCCC1)c1csc(-c2ccncc2)n1` [CBK288591], for which the viability at 28.5 h, 10 µM turned out to be 64.2%. With `c1ccc2nc(N3CCCC3)c(SCCc3cnccn3)nc2c1` [CBK103695], the viability at 28.5 h, 10 µM was 106%.

In the case of `COc1ccc(S(=O)(=O)Nc2ccc3oc4c(c3c2)CC(C)CC4)cc1[N+](=O)[O-]` (centres unmarked) [CBK266131], the viability at 28.5 h, 10 µM amounted to 94.3%. As to `CCn1c(SC(C)C(N)=O)nc2ccc(Br)cc2c1=O` (centres unmarked) [CBK306424], the viability at 28.5 h, 10 µM stood at 74.6%. On to `CCN(CC)Cc1cc(C(C)(C)C)oc1C(=O)O` [CBK266013C], for which the viability at 28.5 h, 10 µM was found to be 110%.

For `CCN(Cc1ccncc1)C(=O)NCCN1CCOCC1` [CBK145055], the viability at 28.5 h, 10 µM is 92.1%.

For the compound `O=C(O)CCn1c(CO)nc2ccccc21` [CBK111473], the viability at 28.5 h, 10 µM was 115%. With `CCn1c(CN2CCCC2c2nc(N(C)C)ncc2-c2cccc(F)c2)nc2ccccc21` (centres unmarked) [CBK286500], the viability at 28.5 h, 10 µM worked out at 102%. The result for `Cc1csc2c(N3CCCC3CC(=O)c3cnn(C)c3)ncnc12` (centres unmarked) [CBK304429] reads 81.8%; that for `O=[N+]([O-])c1cnc(NCCCn2ccnc2)c([N+](=O)[O-])c1` [CBK262511], 94.4%. With `O=C(CCC(=O)Nc1ccc(F)cc1)N/N=C/c1ccc(O)cc1O` [CBK261766] the figure was 112%; with `O=C(Cn1cc(C(=O)NCc2ccccc2)ccc1=O)Nc1cc(F)ccc1N1CCCC1` [CBK285998], 97.8%. The result for `O=C(NCCc1cccs1)Nc1ccc(F)c(F)c1` [CBK043951] reads 87%; that for `O=C(COc1ccc(F)cc1)Nc1cccc2[nH]ccc12` [CBK159653], 86%.

Regarding `CCNC(=O)c1cc2c(=O)n3ccccc3nc2n1C` [CBK287556], the viability at 28.5 h, 10 µM came to 104%. Regarding `CCCc1ccc(S(=O)(=O)Nc2ccc(C(=O)O)cc2)cc1` [CBK034044], the viability at 28.5 h, 10 µM stood at 114%. The result for `Cc1c(NC(=O)c2ccc3c(c2)C(=O)N(Cc2ccco2)C3=O)cccc1C(=O)O` [CBK268627] reads 92.9%; that for `CCN(CC)C(=O)CN1CCN(c2nccnc2OC)CC1` [CBK084221], 83.9%. With `COCc1cn(C[C@H]2CC3CCN2C[C@@H]3C(=O)NC(C)C)nn1` (some centres unmarked) [CBK288733] the figure was 89.2%. `Cc1nc(C2CCCCN2C(=O)C2CCCCC2)ncc1C(=O)NCc1ccc(F)cc1` (centres unmarked) [CBK285554]: the viability at 28.5 h, 10 µM came to 86.5%.

`O=C(CN1CCN(C2CCCC2)C(=O)C1)N1CCCc2ccccc21` [CBK282132]: the viability at 28.5 h, 10 µM is 81.7%. Consider `CCc1ccc2c(c1)C(CCNC(=O)c1ncccc1F)C(=O)N2` (centres unmarked) [CBK304727], for which the viability at 28.5 h, 10 µM was determined as 106%. For the compound `Nc1ncnc2c1nc1n2[C@H]2C[C@@H](O)[C@H](O2)[C@H]1O` [CBK201183], the viability at 28.5 h, 10 µM stood at 96.2%. The result for `O=C(Cc1c[nH]c(=O)[nH]c1=O)N1CCCCC1c1nc2cc(F)ccc2[nH]1` (centres unmarked) [CBK291108] reads 104%; that for `O=C(O)c1ccc(CSc2nnc(Cc3ccccc3)[nH]2)o1` [CBK269208], 99.3%; that for `O=C(CN1C(=O)c2ccccc2C1=O)Nn1cnnc1` [CBK263789], 99.6%. With `CCOc1cc(NC2CCN(C(=O)C(C)(C)C3CCCC3)CC2)ncn1` [CBK304430] the figure was 91.2%; with `O=C(c1ccc(NC2CC2)nc1)N1CCC(CN2CCOCC2)CC1` [CBK305970], 87.6%; with `Cc1ccccc1OCc1nnc(SCC(=O)N2CCOCC2)n1C` [CBK265850], 96.1%. `Cc1ccc(-c2cc(C(=O)Nc3ccc(S(=O)(=O)Nc4nccs4)cc3)c3ccccc3n2)c(C)c1` [CBK262638]: the viability at 28.5 h, 10 µM amounted to 85.3%. With `Cc1ccc(-c2ncc(OCC3CCCN3C)nc2N)c(C)c1` (centres unmarked) [CBK145137], the viability at 28.5 h, 10 µM was 99.2%. The result for `COc1ccc(OC)c(NC(=S)NCCN2CCOCC2)c1` [CBK264927] reads 96.9%. `COc1nccc(N2CCCC(CO)(CC3CC3)C2)c1C#N` (centres unmarked) [CBK307553]: the viability at 28.5 h, 10 µM turned out to be 89.3%. With `CCOc1ccc(-c2cncc(NC3CCC(O)CC3)n2)cc1` (centres unmarked) [CBK065877] the figure was 88.9%; with `CC(=O)c1c(C)nn(C(C)CC(=O)Nc2ccc(Cl)c(Cl)c2)c1C` (centres unmarked) [CBK270021], 87.3%; with `O=C(N/N=C/c1ccc([N+](=O)[O-])cc1)c1ccccc1Cl` [CBK261775], 88.7%. Take `COc1ccc(CCNC(=O)c2cnc3scc(C)n3c2=O)cc1` [CBK287291]: the viability at 28.5 h, 10 µM is 103%. Consider `CC(C)Nc1nc2ccccc2nc1OCc1ccc(C2CC2C(=O)N(C)C)cc1` (centres unmarked) [CBK166091], for which the viability at 28.5 h, 10 µM is 92.5%. As for `COc1ccc(CN2C(=O)COC[C@@H]2[C@H](O)c2ccc(NC(=O)c3ccc(OC)cc3)cc2)cc1` [CBK289675], the viability at 28.5 h, 10 µM stood at 95.9%. `CC1CCCN(Cc2c(C3CCNCC3)[nH]c3ncccc23)C1C` (centres unmarked) [CBK285084]: the viability at 28.5 h, 10 µM was 89.1%.

`O=c1[nH]c(=O)c2cc(S(=O)(=O)Nc3cccc(-c4ccc(F)cc4)c3)ccc2[nH]1` [CBK286394]: the viability at 28.5 h, 10 µM is 84.2%. For the compound `CCOc1ccc(/N=C2/SC(C(=O)O)CC(=O)N2Cc2ccc3c(c2)OCO3)cc1` (centres unmarked) [CBK263296], the viability at 28.5 h, 10 µM amounted to 93.3%. With `CN(C(=O)NC1CCCc2c1cnn2CCO)c1ccccc1F` (centres unmarked) [CBK304024], the viability at 28.5 h, 10 µM amounted to 109%. Consider `CCNC(=O)N[C@@H]1C=C[C@@H](c2c(C)nn(CCC#N)c2C)C1` [CBK289171], for which the viability at 28.5 h, 10 µM came to 111%.

Turning to `Cc1cccc(CN2CC[C@@H]3[C@H](C2)[C@@H](c2ccsc2)CN3C(=O)c2ccccc2F)c1` [CBK285659], the viability at 28.5 h, 10 µM stood at 109%.

With `CCOC(=O)CNC(=O)N1CCCC1c1nc(-c2ccccc2)c2ccccn12` (centres unmarked) [CBK046502], the viability at 28.5 h, 10 µM worked out at 103%. On to `Nc1nc2c(sc(=O)n2[C@@H]2O[C@H](CO)[C@H](O)C2O)c(=O)[nH]1` (some centres unmarked) [CBK201286], for which the viability at 28.5 h, 10 µM worked out at 96%.

In the case of `Cc1cccc(N2C(=O)c3ccc(C(=O)c4ccc5c(c4)C(=O)N(c4cccc(C)n4)C5=O)cc3C2=O)n1` [CBK263069], the viability at 28.5 h, 10 µM worked out at 87.8%. The result for `Cn1ccnc1CN1CCC2(C/C=C/Cc3ccccc3OCC(=O)NCCNC2=O)CC1` [CBK292180] reads 95.7%.

For `O=C(O)c1c[nH]nc1-c1ccc(Br)cc1` [CBK266368], the viability at 28.5 h, 10 µM was 91.5%. Take `COc1ccc(-n2cc(-c3ccccc3C(F)(F)F)nn2)cc1OC` [CBK112965]: the viability at 28.5 h, 10 µM turned out to be 89.4%. `CCOC(=O)C1CCCN(CCC(=O)Nc2cc(C)cc(C)c2)C1` (centres unmarked) [CBK264284]: the viability at 28.5 h, 10 µM turned out to be 100%.

As to `CCOc1ccc(CC(=O)NN2CCOCC2)cc1OCC` [CBK268150], the viability at 28.5 h, 10 µM is 102%.

As for `COc1cc2c(cc1NC(=O)C/C(C)=N/NC(=O)c1ccoc1C)oc1ccccc12` [CBK262953], the viability at 28.5 h, 10 µM turned out to be 112%. Regarding `COc1cccc2c1cc(C(=O)NCCn1ccnc1C)n2C` [CBK283267], the viability at 28.5 h, 10 µM stood at 101%. For the compound `CCOC(=O)c1c(/N=C/c2cc(I)cc(I)c2O)sc2c1CCN(Cc1ccccc1)C2` [CBK262246], the viability at 28.5 h, 10 µM was found to be 106%. Turning to `Cc1ccccc1N1CCC(CNC(=O)CCc2ccnn2C)C1` (centres unmarked) [CBK306543], the viability at 28.5 h, 10 µM turned out to be 89%. On to `Cc1cccn2cc(CSc3nnc4[nH]c5ccccc5n34)nc12` [CBK296996], for which the viability at 28.5 h, 10 µM was determined as 94.1%. In the case of `COc1ccc(S(=O)(=O)N(C)CC(=O)NCc2cccnc2)cc1Cl` [CBK268089], the viability at 28.5 h, 10 µM came to 108%. On to `COCC1(C(=O)N2CC(=O)N(c3ccccc3C#N)CC2C)CCC1` (centres unmarked) [CBK307159], for which the viability at 28.5 h, 10 µM was found to be 89%. Regarding `CCCOc1ccc(S(=O)(=O)NCCN2CCOCC2)c2ccccc12` [CBK269045], the viability at 28.5 h, 10 µM is 99.1%. For `Cc1occc1C(=O)Nc1nc(CC(=O)N2CC(C)SC(C)C2)cs1` (centres unmarked) [CBK306271], the viability at 28.5 h, 10 µM stood at 87.8%. With `O=C(Nc1ccc(Cl)cc1)N1CCN(c2ccccc2)CC1` [CBK155188], the viability at 28.5 h, 10 µM is 101%.
